Tests used:
Nitric oxide synthase 1 = Nitric oxide synthase 1 (Homo sapiens, UniProt P29475); assay: Inhibitory activity against Neuronal nitric oxide synthase
Nitric oxide synthase 3 = target: T1, Nitric oxide synthase 3 (Homo sapiens, UniProt P29474); assay: Inhibitory activity against Endothelial nitric oxide synthase
T1 sequence (P29474 whole entry): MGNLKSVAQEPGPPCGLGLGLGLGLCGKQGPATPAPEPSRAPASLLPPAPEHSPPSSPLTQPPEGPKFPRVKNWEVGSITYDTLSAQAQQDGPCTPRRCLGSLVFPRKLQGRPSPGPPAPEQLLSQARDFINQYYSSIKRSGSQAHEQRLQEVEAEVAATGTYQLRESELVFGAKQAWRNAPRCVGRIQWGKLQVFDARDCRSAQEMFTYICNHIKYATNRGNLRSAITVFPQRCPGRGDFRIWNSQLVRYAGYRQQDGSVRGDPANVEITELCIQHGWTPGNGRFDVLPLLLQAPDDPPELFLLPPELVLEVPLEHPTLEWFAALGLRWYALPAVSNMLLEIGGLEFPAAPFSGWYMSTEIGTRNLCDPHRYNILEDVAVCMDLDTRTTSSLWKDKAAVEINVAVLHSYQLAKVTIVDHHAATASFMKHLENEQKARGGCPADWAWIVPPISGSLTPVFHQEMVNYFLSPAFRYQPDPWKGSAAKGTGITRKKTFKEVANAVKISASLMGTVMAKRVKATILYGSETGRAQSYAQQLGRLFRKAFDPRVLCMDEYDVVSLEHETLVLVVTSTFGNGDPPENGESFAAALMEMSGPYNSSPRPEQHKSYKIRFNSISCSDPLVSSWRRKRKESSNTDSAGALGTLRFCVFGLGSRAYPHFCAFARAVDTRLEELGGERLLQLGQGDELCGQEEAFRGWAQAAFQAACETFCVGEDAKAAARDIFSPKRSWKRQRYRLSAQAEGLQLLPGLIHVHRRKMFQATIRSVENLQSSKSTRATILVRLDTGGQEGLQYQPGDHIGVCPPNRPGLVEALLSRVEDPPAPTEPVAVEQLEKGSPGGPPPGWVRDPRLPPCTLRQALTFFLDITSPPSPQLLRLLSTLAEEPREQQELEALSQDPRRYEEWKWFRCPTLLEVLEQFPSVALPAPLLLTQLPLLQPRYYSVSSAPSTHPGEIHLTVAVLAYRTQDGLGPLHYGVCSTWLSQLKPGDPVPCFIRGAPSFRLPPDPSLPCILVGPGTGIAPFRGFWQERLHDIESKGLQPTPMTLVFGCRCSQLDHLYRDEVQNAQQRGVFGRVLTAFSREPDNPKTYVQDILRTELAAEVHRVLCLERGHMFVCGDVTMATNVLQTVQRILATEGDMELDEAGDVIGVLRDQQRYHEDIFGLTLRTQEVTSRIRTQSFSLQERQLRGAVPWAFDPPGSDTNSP

[1] = target: Nitric oxide synthase, inducible (Homo sapiens, UniProt P35228); assay: Inhibitory activity against Inducible nitric oxide synthase
[2] = target: T2, Nitric oxide synthase 3 (Homo sapiens) (UniProt P29474); assay: Ratio between Endothelial nitric oxide synthase and Inducible nitric oxide synthase
T2 sequence (whole entry): T1 sequence (P29474 whole entry)

Chain of Nitric oxide synthase, inducible (P35228 whole entry): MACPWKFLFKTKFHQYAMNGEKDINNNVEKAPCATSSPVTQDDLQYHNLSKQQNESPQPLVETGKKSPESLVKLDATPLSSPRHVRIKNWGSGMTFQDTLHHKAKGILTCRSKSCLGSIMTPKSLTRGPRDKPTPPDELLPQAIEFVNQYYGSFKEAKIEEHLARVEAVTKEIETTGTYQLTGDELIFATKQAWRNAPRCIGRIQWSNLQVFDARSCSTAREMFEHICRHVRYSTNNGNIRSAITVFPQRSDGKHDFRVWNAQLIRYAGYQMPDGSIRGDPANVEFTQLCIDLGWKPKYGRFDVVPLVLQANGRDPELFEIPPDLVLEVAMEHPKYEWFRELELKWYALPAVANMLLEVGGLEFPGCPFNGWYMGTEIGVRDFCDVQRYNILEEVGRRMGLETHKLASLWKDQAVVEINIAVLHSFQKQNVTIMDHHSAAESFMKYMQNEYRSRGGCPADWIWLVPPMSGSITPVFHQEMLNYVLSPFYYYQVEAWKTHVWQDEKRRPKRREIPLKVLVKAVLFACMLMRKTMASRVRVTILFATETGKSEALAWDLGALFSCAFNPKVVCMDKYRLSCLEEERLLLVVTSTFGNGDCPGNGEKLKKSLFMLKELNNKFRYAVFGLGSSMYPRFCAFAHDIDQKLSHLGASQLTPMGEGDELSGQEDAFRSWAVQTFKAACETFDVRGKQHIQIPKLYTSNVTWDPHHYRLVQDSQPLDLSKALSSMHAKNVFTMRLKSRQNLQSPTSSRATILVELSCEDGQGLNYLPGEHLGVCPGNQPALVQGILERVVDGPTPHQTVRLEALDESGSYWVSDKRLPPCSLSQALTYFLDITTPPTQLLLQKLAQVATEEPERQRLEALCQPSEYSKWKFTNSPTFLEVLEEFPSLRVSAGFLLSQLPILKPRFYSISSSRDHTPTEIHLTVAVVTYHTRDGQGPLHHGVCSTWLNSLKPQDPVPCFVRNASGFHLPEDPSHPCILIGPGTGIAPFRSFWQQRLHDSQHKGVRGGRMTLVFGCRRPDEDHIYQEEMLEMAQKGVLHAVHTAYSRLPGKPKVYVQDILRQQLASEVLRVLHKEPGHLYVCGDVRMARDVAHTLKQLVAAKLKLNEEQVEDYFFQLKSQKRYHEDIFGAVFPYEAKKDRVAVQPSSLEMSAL
Chain of Nitric oxide synthase 1 (P29475 whole entry): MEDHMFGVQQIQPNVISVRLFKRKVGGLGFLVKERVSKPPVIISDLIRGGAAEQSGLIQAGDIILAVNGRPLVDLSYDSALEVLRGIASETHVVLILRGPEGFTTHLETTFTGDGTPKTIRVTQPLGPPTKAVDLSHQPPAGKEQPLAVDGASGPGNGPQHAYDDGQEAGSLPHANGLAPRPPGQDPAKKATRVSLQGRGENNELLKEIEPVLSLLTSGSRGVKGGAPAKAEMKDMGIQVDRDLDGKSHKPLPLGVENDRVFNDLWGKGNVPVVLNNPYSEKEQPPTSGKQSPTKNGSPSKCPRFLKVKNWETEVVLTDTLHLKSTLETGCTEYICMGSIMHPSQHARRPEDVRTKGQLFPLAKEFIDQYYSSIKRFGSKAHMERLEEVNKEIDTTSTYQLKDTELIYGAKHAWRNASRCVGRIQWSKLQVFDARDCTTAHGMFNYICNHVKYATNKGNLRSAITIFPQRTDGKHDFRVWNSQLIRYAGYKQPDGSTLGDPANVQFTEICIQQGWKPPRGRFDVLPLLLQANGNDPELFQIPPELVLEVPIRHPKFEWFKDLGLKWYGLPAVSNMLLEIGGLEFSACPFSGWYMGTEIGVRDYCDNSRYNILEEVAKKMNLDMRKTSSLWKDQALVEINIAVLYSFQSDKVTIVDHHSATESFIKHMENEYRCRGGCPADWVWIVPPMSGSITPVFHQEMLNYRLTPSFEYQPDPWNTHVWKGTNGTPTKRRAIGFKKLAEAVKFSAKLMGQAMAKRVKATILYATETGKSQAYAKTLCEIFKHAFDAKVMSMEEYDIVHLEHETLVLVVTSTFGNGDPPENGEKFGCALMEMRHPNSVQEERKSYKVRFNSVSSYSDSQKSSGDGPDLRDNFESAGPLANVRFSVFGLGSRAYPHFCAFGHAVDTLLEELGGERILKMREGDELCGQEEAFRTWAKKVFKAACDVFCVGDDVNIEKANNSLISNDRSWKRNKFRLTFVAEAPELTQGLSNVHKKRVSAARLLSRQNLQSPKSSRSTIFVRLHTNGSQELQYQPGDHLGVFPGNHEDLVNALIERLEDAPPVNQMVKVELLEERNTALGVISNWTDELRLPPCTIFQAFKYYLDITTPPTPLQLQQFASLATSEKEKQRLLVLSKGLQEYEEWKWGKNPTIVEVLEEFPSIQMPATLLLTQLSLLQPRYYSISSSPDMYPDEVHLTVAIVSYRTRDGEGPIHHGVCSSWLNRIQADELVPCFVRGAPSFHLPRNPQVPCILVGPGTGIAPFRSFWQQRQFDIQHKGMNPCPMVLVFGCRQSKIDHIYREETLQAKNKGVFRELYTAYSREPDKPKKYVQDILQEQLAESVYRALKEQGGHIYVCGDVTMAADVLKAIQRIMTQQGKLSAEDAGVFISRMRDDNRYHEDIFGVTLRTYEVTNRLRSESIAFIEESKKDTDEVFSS

Compound	IC50 (Nitric oxide synthase 1)	IC50 (Nitric oxide synthase 3)	IC50 [1]	Ratio [2]
N=C1CCC2CCCCN12 (stereo unspecified)	> 50 µM	> 50 µM	> 50 µM	
CCCCC1CSC(N)=N1 (stereo unspecified)	13.2 µM	> 50 µM	5.2 µM	
CC1CCN=C1N (stereo unspecified)	0.9 µM	1.8 µM	1.5 µM	1.2
CCC1CC(N)=NC1C (stereo unspecified)	0.14 µM	6.3 µM	0.16 µM	38
NC1=NC(c2ccccc2)CS1 (stereo unspecified)	> 50 µM	> 50 µM	> 50 µM	
CC1CN=C(N)S1 (stereo unspecified)	> 50 µM	> 50 µM	> 50 µM	
CCC1CC(C)C(N)=N1 (stereo unspecified)	2.4 µM	5.5 µM	23 µM	0.24
NC1=NCCS1	1.8 µM	1.1 µM	0.9 µM	1.2
CCC1CN=C(N)C1C (stereo unspecified)	0.61 µM	60.6 µM	0.93 µM	65
NC1=NCC(c2ccccc2)C1 (stereo unspecified)	> 50 µM	> 50 µM	> 50 µM	
CCC1N=C(N)CC1C (stereo unspecified)	0.08 µM	0.52 µM	0.02 µM	26
NC1=NCCC1	9.6 µM	4.6 µM	4.1 µM	1.1
CCC1CN=C(N)C1 (stereo unspecified)	2.6 µM	14.5 µM	0.5 µM	27
CCCC1CC(N)=NC1C (stereo unspecified)	27 µM	104 µM	13.1 µM	8
N=C1CCC2CCCN12 (stereo unspecified)	9.6 µM	33 µM	> 50 µM	
CC(C)C1CN=C(N)C1 (stereo unspecified)	10.6 µM	87.8 µM	3.5 µM	25
CCCC1CN=C(N)C1 (stereo unspecified)	53 µM	53 µM	38.7 µM	1.4
N=C1SCC2CCCN12 (stereo unspecified)	14 µM	> 50 µM	> 50 µM	
N=C1SCC2CCCCN12 (stereo unspecified)	> 50 µM	> 50 µM	> 50 µM	
CC1CC(N)=NC1C (stereo unspecified)	0.13 µM	0.6 µM	0.3 µM	
NC1=NC2CCCC2C1 (stereo unspecified)	9.9 µM	> 50 µM	> 50 µM	
CC1CN=C(N)C1C (stereo unspecified)	0.61 µM	8.7 µM	1.2 µM	7.2
CCCC1CC(N)=NC1CC (stereo unspecified)	17.3 µM	227 µM	10.2 µM	22
CC(=N)NCCCC[C@H](N)C(=O)O [L-NIL]	17.5 µM			3.7
CC1CCC(N)=N1 (stereo unspecified)	3.1 µM	1.9 µM	1.3 µM	1.4
CCCC1N=C(N)CC1C (stereo unspecified)	4.8 µM	49 µM	2 µM	24
CC1CN=C(N)C1 (stereo unspecified)	0.8 µM	2.6 µM	0.2 µM	13

From ChEMBL document CHEMBL1137191, “Evaluation of pyrrolidin-2-imines and 1,3-thiazolidin-2-imines as inhibitors of nitric oxide synthase” (Bioorg Med Chem Lett, 2004)
